Measured values reported in ChEMBL document CHEMBL1139277, “Synthesis of tyrosinase inhibitory (4-oxo-4H-pyran-2-yl)acrylic acid ester derivatives” (Bioorg Med Chem Lett, 2009).

Key:
[1] = tested on: B16-F10; test: Inhibition of melanin production in mouse B16F10 cells at 40 ug/ml after 72 hrs relative to control; format: functional; conditions: B16-F10, 72 h
[2] = tested on: B16-F10; test: Cytotoxicity against mouse B16F10 cells at 20 ug/ml after 72 hrs by MTT assay; format: functional
[3] = tested on: B16-F10; test: Inhibition of melanin production in mouse B16F10 cells at 20 ug/ml after 72 hrs relative to control; format: functional; conditions: B16-F10, 72 h
[4] = target: T1, Tyrosinase (Agaricus bisporus, UniProt O42713); test: Inhibition of mushroom tyrosinase
T1 sequence (O42713 whole entry): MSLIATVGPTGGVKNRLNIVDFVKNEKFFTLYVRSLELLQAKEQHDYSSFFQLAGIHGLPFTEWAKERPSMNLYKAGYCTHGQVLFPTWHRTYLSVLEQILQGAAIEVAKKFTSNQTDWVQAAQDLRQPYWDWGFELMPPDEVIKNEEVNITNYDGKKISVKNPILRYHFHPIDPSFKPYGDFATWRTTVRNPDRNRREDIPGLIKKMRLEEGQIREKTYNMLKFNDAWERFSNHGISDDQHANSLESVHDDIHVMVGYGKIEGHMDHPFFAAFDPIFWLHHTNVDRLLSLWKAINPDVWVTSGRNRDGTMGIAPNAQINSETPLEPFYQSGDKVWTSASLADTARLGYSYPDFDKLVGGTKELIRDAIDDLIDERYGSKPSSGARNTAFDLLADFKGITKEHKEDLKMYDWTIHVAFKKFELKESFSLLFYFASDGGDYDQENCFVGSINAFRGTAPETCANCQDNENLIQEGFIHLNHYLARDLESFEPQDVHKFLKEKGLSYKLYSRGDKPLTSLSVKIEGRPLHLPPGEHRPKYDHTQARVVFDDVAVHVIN

[5] = tested on: B16-F10; test: Cytotoxicity against mouse B16F10 cells at 40 ug/ml after 72 hrs by MTT assay; format: functional

Row | IC50 [4] [µM] | SMILES | inhibition at 40 µg/mL [1] [%] | Activity [2] [%] | inhibition at 20 µg/mL [3] [%] | Activity [5] [%]
1 | 74.9 | O=C(/C=C/c1cc(=O)c(O)co1)OCCO | 41.6 | 80.5 | 30 | 74.8
2 | 26.5 | O=C(/C=C/c1cc(=O)c(O)co1)OCCOCCO | 32.4 | 84.6 | 20.1 | 89.4
3 | > 400 | CCCCCCCCOC(=O)/C=C/c1cc(=O)c(O)co1 | 54.6 | 85 | 25 | 62.5
4 | 80.3 | CC(C)OC(=O)/C=C/c1cc(=O)c(O)co1 | 69.8 | 50.9 | 19.5 | 37.4

Continued, compound first:

Row | SMILES | IC50 [4] [µM] | inhibition at 40 µg/mL [1] [%] | Activity [2] [%] | inhibition at 20 µg/mL [3] [%] | Activity [5] [%]
5 | COCCOC(=O)/C=C/c1cc(=O)c(O)co1 | 98.1 | 47.8 | 81.1 | 29.6 | 65.4
6 | COCCOCCOCCOC(=O)/C=C/c1cc(=O)c(O)co1 | 67.6 | 25.4 | 83.9 | 11 | 79.7
7 | O=C(/C=C/c1cc(=O)c(O)co1)OCCOCCOCCO | 79.2 | 17.9 | 84.9 | 8.7 | 78.5
8 | CCOC(=O)/C=C/c1cc(=O)c(O)co1 | 36.3 | 65 | 72 | 46.1 | 39.2
9 | COCCOCCOC(=O)/C=C/c1cc(=O)c(O)co1 | 59.1 | 24 | 88.7 | 19.5 | 83.4
